Reference: patent US8785655B2, “Ionic liquid solvents” (Dublin City University, priority 2009, dated 2014)

What was measured:
[1] = system: Enterococcus sp. J 14365/08; assay: Screen against bacteria, MIC/IC80; format: cell-based; conditions: EF
[2] = system: Candida albicans ATCC 44859; assay: In vitro antifungal activity, MIC by microdilution (NCCLS M27-A)
Description: (§1) In vitro antifungal activities of the compounds were evaluated on the collection of fungal strains deposited at the Department of Biological and Medical Sciences, Faculty of Pharmacy, Charles University, Czech Republic. All the isolates were maintained on Sabouraud dextrose agar prior to being tested.
(§2) Minimum inhibitory concentrations (MICs) were determined by the microdilution format of the NCCLS M27-A guidelines. […] RPMI 1640 (Sevapharma, Prague) medium supplemented with L-glutamine and buffered with 0.165 M morpholinepropanesulfonic acid to pH 7.0 was used as the test medium. The wells of the microdilution tray contained 100 μl of the RPMI 1640 medium with 2-fold serial dilutions of the compounds (1000 to 0.24 μmol/l for the new compounds) and 100 μl of inoculum suspension. Fungal inoculum in RPMI 1640 was prepared to give a final concentration of 5×103±0.2 cfu·ml-1. The trays were incubated at 35° C. and MICs were read visually for filamentous fungi and photometrically for yeasts as an optical density (OD) at 540 nm after 24 h and 48 h. The MICs were defined as 80% inhibition of the growth of control. MICs were determined twice and in duplicate. The deviations from the usually obtained were no higher than the nearest concentration value up and down the dilution scale.

[3] = system: Staphylococcus aureus H 5996/08 Methiciline-resistant; assay: Screen against bacteria, MIC/IC80; format: cell-based; conditions: MRSA
Candida krusei E28 = assay: In vitro antifungal activity, MIC by microdilution (NCCLS M27-A)
Absidia corymbifera 272 = assay: as above; conditions: AC
[4] = system: Trichophyton mentagrophytes 445; assay: as above; conditions: TM
[5] = system: Aspergillus fumigatus 231; assay: as above; conditions: AF
Description: as §1, §2

Candida krusei ATCC 6258 = assay: as above
Description: as §1, §2

[6] = system: Pseudomonas aeruginosa CCM 1961; assay: Screen against bacteria, MIC/IC80; format: cell-based; conditions: PA
[7] = system: Candida parapsilosis ATCC 22019; assay: In vitro antifungal activity, MIC by microdilution (NCCLS M27-A); conditions: CP
Description: as §1, §2

[8] = system: Staphylococcus epidermidis H 6966/08; assay: Screen against bacteria, MIC/IC80; format: cell-based; conditions: SE
[9] = system: Staphylococcus aureus CCM 4516/08; assay: Screen against bacteria, MIC/IC80; format: cell-based; conditions: SA
Escherichia coli CCM4517 = assay: Screen against bacteria, MIC/IC80; format: cell-based; conditions: EC
[10] = system: Candida albicans ATCC 90028; assay: In vitro antifungal activity, MIC by microdilution (NCCLS M27-A)
Candida glabrata 20/l = assay: as above; conditions: CG
[11] = system: Klebsiella pneumoniae D 11750/08; assay: Screen against bacteria, MIC/IC80; format: cell-based; conditions: KP
[12] = system: Candida lusitaniae 2446/l; assay: In vitro antifungal activity, MIC by microdilution (NCCLS M27-A); conditions: CL
Description: as §1, §2

[13] = system: Klebsiella pneumoniae J 14368/08 ESBL-positive; assay: Screen against bacteria, MIC/IC80; format: cell-based; conditions: KP-E
Candida tropicalis 156 = assay: In vitro antifungal activity, MIC by microdilution (NCCLS M27-A); conditions: CT
Description: as §1, §2

Substance | MIC/IC80 ([1]; 24 h) [µM] | MIC/IC80 ([1]; 48 h) [µM] | MIC/IC80 ([2]; CA1, 24 h) [µM] | MIC/IC80 ([2]; CA1, 48 h) [µM] | MIC/IC80 ([3]; 24 h) [µM] | MIC/IC80 ([3]; 48 h) [µM] | MIC/IC80 (Candida krusei E28; CK2, 24 h) [µM] | MIC/IC80 (Candida krusei E28; CK2, 48 h) [µM] | MIC/IC80 (Absidia corymbifera 272; 24 h) [µM] | MIC/IC80 (Absidia corymbifera 272; 48 h) [µM] | MIC/IC80 ([4]; 72 h) [µM] | MIC/IC80 ([4]; 120 h) [µM] | MIC/IC80 ([5]; 24 h) [µM] | MIC/IC80 ([5]; 48 h) [µM] | MIC/IC80 (Candida krusei ATCC 6258; CK1, 24 h) [µM] | MIC/IC80 (Candida krusei ATCC 6258; CK1, 48 h) [µM] | MIC/IC80 ([6]; 24 h) [µM] | MIC/IC80 ([6]; 48 h) [µM] | MIC/IC80 ([7]; 24 h) [µM] | MIC/IC80 ([7]; 48 h) [µM] | further results
R-3-methyl-1-[1-(ethoxyethoxycarbonyl)-1-methylmethoxycarbonylmethyl]imidazolium octyl sulphate [KG173] | >1000 | >1000 | >1000 | >1000 | >1000 | >1000 | >1000 | >1000 | >1000 | >1000 | >1000 | >1000 | >1000 | >1000 | >1000 | >1000 | >1000 | >1000 | >1000 | >1000 | MIC/IC80 ([8]; 24 h): >1000 µM; MIC/IC80 ([8]; 48 h): >1000 µM; MIC/IC80 ([9]; 24 h): >1000 µM; MIC/IC80 ([9]; 48 h): >1000 µM; MIC/IC80 (Escherichia coli CCM4517; 24 h): >1000 µM; MIC/IC80 (Escherichia coli CCM4517; 48 h): >1000 µM; MIC/IC80 ([10]; CA2, 24 h): >1000 µM; MIC/IC80 ([10]; CA2, 48 h): >1000 µM; MIC/IC80 (Candida glabrata 20/l; 24 h): >1000 µM; MIC/IC80 (Candida glabrata 20/l; 48 h): >1000 µM; MIC/IC80 ([11]; 24 h): >1000 µM; MIC/IC80 ([11]; 48 h): >1000 µM; MIC/IC80 ([12]; 24 h): >1000 µM; MIC/IC80 ([12]; 48 h): >1000 µM; MIC/IC80 ([13]; 24 h): >1000 µM; MIC/IC80 ([13]; 48 h): >1000 µM; MIC/IC80 (Candida tropicalis 156; 24 h): >1000 µM; MIC/IC80 (Candida tropicalis 156; 48 h): >1000 µM
R-3-methyl-1-[1-(ethoxyethoxycarbonyl)-1-phenylmethoxycarbonylmethyl]imidazolium octyl sulphate [KG301] | >1000 | >1000 | >1000 | >1000 | >1000 | >1000 | >1000 | >1000 | >1000 | >1000 | >1000 | >1000 | >1000 | >1000 | >1000 | >1000 | >1000 | >1000 | >1000 | >1000 | MIC/IC80 ([8]; 24 h): >1000 µM; MIC/IC80 ([8]; 48 h): >1000 µM; MIC/IC80 ([9]; 24 h): >1000 µM; MIC/IC80 ([9]; 48 h): >1000 µM; MIC/IC80 (Escherichia coli CCM4517; 24 h): >1000 µM; MIC/IC80 (Escherichia coli CCM4517; 48 h): >1000 µM; MIC/IC80 ([10]; CA2, 24 h): >1000 µM; MIC/IC80 ([10]; CA2, 48 h): >1000 µM; MIC/IC80 (Candida glabrata 20/l; 24 h): >1000 µM; MIC/IC80 (Candida glabrata 20/l; 48 h): >1000 µM; MIC/IC80 ([11]; 24 h): >1000 µM; MIC/IC80 ([11]; 48 h): >1000 µM; MIC/IC80 ([12]; 24 h): >1000 µM; MIC/IC80 ([12]; 48 h): >1000 µM; MIC/IC80 ([13]; 24 h): >1000 µM; MIC/IC80 ([13]; 48 h): >1000 µM; MIC/IC80 (Candida tropicalis 156; 24 h): >1000 µM; MIC/IC80 (Candida tropicalis 156; 48 h): >1000 µM
R-3-methyl-1-[1-(methoxycarbonyl)-1-phenylmethoxycarbonylmethyl]imidazolium octyl sulphate [KG87] | >1000 | >1000 | >1000 | >1000 | >1000 | >1000 | 1000 | >1000 | >1000 | >1000 | 1000 | >1000 | >1000 | >1000 | 1000 | >1000 | >1000 | >1000 | >1000 | >1000 | MIC/IC80 ([8]; 24 h): >1000 µM; MIC/IC80 ([8]; 48 h): >1000 µM; MIC/IC80 ([9]; 24 h): >1000 µM; MIC/IC80 ([9]; 48 h): >1000 µM; MIC/IC80 (Escherichia coli CCM4517; 24 h): >1000 µM; MIC/IC80 (Escherichia coli CCM4517; 48 h): >1000 µM; MIC/IC80 ([10]; CA2, 24 h): >1000 µM; MIC/IC80 ([10]; CA2, 48 h): >1000 µM; MIC/IC80 (Candida glabrata 20/l; 24 h): >1000 µM; MIC/IC80 (Candida glabrata 20/l; 48 h): >1000 µM; MIC/IC80 ([11]; 24 h): >1000 µM; MIC/IC80 ([11]; 48 h): >1000 µM; MIC/IC80 ([12]; 24 h): >1000 µM; MIC/IC80 ([12]; 48 h): >1000 µM; MIC/IC80 ([13]; 24 h): >1000 µM; MIC/IC80 ([13]; 48 h): >1000 µM; MIC/IC80 (Candida tropicalis 156; 24 h): >1000 µM; MIC/IC80 (Candida tropicalis 156; 48 h): >1000 µM
R-3-methyl-1-[1-(pentoxycarbonyl)-1-methylmethoxycarbonylmethyl]imidazolium octyl sulphate [KG171] | >1000 | >1000 | >1000 | >1000 | >1000 | >1000 | >1000 | >1000 | >1000 | >1000 | >1000 | >1000 | >1000 | >1000 | >1000 | >1000 | >1000 | >1000 | >1000 | >1000 | MIC/IC80 ([8]; 24 h): >1000 µM; MIC/IC80 ([8]; 48 h): >1000 µM; MIC/IC80 ([9]; 24 h): >1000 µM; MIC/IC80 ([9]; 48 h): >1000 µM; MIC/IC80 (Escherichia coli CCM4517; 24 h): >1000 µM; MIC/IC80 (Escherichia coli CCM4517; 48 h): >1000 µM; MIC/IC80 ([10]; CA2, 24 h): >1000 µM; MIC/IC80 ([10]; CA2, 48 h): >1000 µM; MIC/IC80 (Candida glabrata 20/l; 24 h): >1000 µM; MIC/IC80 (Candida glabrata 20/l; 48 h): >1000 µM; MIC/IC80 ([11]; 24 h): >1000 µM; MIC/IC80 ([11]; 48 h): >1000 µM; MIC/IC80 ([12]; 24 h): >1000 µM; MIC/IC80 ([12]; 48 h): >1000 µM; MIC/IC80 ([13]; 24 h): >1000 µM; MIC/IC80 ([13]; 48 h): >1000 µM; MIC/IC80 (Candida tropicalis 156; 24 h): >1000 µM; MIC/IC80 (Candida tropicalis 156; 48 h): >1000 µM
